Laboratory results: patent US9277748B2, “Agonist/antagonist compositions and methods of use” (The United States of America, as represented by the …, priority 2010, dated 2016)
Entries after “also recorded” stand apart in the source; their conditions may differ. Where two headings read alike, the source gives them in different places.

Key:
[1] = target: CHO cells expressing TRPV1 (CHO-rTRPV1) (Rattus norvegicus, UniProt O35433); assay: Intracellular Ca2+ imaging, agonist and antagonist added simultaneously; type: cell-based
Experimental: The stable CHO cell clone expressing rTRPV1 (Tet-Off) was the generous gift of James E. Krause and Daniel N. Cortwright (Neurogen Corp., Branford, Conn., USA). These cells were cultured in maintaining medium (HAM F-12 supplemented with 10% FBS (USA sourced, Atlanta biologicals, Lawrenceville, Ga., USA), 25 mM HEPES, pH 7.5, 250 μg/ml geneticin (F-12, HEPES, and geneticin are from Invitrogen, Carlsbad, Calif., USA) and 1 mg/L tetracycline (Calbiochem, La Jolla, Calif., USA).
CHO-rTRPV1 cells were seeded on 25 mm round glass coverslips in 35×10 mm tissue culture dishes in maintaining medium. After 24 hours, the medium was replaced with inducing medium (maintaining medium without geneticin and tetracycline, but containing 1 mM sodium butyrate) to induce TRPV1 expression. Experiments were performed approximately 24 hours after induction. For fura-2 AM (Invitrogen, Carlsbad, Calif., USA) loading, the cells were incubated in DPBS containing calcium and magnesium (Invitrogen, Carlsbad, Calif., USA), 0.5 mg/ml BSA (Sigma, St. Louis, Mo., USA), and 5 μM Fura-2 AM for 2 hours in the dark at 20° C. After 2 hours, the loaded cells were washed 2× with DPBS without calcium and magnesium and immersed in maintaining medium until the measurements. The measurements were carried out in DPBS containing calcium and magnesium, plus 0.5 mg/ml BSA. The fluorescence of individual cells treated simultaneously with a single dose of agonist and antagonist was measured with an InCyt Im2 fluorescence imaging system (Intracellular Imaging, Cincinnati, Ohio, USA). The cells within the selected field were illuminated alternately at 340 and 380 nm. Emitted light >510 nm was measured. To determine the approximate intracellular Ca^2+ concentrations, the system was calibrated using a fura-2 calibration kit (Invitrogen, Carlsbad, Calif., USA). Data were analyzed with the Incyt software and tabulated with Microsoft Excel spreadsheet and graphed with Origin 6.0 (OriginLab Corp., Northhampton, Mass., USA) software.
The TRPV1 agonist and antagonist were added simultaneously to fura-2 AM loaded CHO-rTRPV1 cells after 90 seconds from the beginning of the measurement (baseline) and monitored continuously for an additional 10 minutes. Inhibition values were compared to the maximally effective dose of capsaicin (300 nM) in the same experiment (see FIGS. 2A-2E) or to the indicated concentration of capsaicin (see FIGS. 3A-3E). Experiments were performed three times, each on different days with approximately 30-49 cells measured.

subjects = settings: cited from earlier work

Chain of CHO cells expressing TRPV1 (CHO-rTRPV1) (O35433 whole entry): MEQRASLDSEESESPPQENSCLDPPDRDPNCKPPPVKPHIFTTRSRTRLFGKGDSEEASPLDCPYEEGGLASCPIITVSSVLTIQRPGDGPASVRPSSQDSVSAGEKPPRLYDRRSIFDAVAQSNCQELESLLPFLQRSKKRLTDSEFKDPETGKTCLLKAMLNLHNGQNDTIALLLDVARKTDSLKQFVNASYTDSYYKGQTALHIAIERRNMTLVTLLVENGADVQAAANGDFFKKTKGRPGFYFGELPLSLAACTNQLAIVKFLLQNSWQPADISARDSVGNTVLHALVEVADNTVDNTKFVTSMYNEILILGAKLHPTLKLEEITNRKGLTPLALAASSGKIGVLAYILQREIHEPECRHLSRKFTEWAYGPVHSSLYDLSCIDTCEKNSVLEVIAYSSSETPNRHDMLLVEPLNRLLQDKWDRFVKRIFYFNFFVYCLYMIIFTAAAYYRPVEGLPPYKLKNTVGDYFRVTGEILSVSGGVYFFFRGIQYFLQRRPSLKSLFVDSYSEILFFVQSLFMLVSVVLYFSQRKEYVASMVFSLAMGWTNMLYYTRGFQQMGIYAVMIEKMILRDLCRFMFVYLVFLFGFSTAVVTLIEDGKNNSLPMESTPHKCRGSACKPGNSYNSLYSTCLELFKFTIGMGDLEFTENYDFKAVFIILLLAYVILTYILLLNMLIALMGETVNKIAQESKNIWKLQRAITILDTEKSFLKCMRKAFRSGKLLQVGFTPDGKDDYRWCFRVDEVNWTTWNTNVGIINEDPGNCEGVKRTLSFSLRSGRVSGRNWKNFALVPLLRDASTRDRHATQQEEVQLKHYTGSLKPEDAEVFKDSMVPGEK

C=C(C)[C@]12C[C@@H](C)[C@@]34O[C@](Cc5ccccc5)(O[C@@H]1[C@@H]3C=C(COC(=O)Cc1cc(I)c(O)c(OC)c1)C[C@]1(O)C(=O)C(C)=C[C@@H]41)O2 [Iodo-RTX]
suitability of antagonist combined with capsaicin to give the desired properties ([1]; criterion: maximal response to agonist decreased by not more than 20%, response reduced by at least 80% later, FIGS. 2 and 3): give the desired properties | suitability of antagonist combined with capsaicin to give the desired properties ([1]; criterion: maximal response to agonist decreased by not more than 20%, response reduced by at least 80% later, FIGS. 2 and 3, listed as IodoRTX): appropriate ratios of antagonist to agonist exist

CC(C)(C)c1ccc(/C=C/C(=O)Nc2ccc3c(c2)OCCO3)cc1 [AMG9810]
initial response to capsaicin as ratio of antagonist to agonist is raised [1]: decrease in the initial response to capsaicin

CC(C)(C)c1ccc(NC(=O)N2CCN(c3ncccc3Cl)CC2)cc1 [BCTC]
suitability of antagonist combined with capsaicin to give the desired properties [1]: appropriate ratios of antagonist to agonist exist; also recorded: give the desired properties

COc1cc(CNC(=O)CCCC/C=C/C(C)C)ccc1O [capsaicin, trans-8-methyl-N-vanillyl-6-nonenamide]
proper inflammation (subjects; at 0.90% concentration, small population of individuals): does not achieve proper inflammation | proper inflammation (subjects; at 1.45% concentration): all subjects achieve proper inflammation | most potent level that can be delivered without potential hazards (subjects; concentration in spray): 1.45% | intracellular calcium response to agonist ([1]; CHO cells expressing TRPV1, FIGS. 2A-2E): persistent elevation of intracellular calcium | maximally effective dose ([1]; fura-2 AM loaded CHO-rTRPV1 cells): 300 nM

Oc1cc2c(cc1O)CN(C(=S)NCCc1ccc(Cl)cc1)CCC2 [capsazepine]
initial response to capsaicin as ratio of antagonist to agonist is raised ([1]; FIG. 2D and FIG. 2E): decrease in the initial response to capsaicin
